In series [1] the target is T1, Y181C HIV-1 RT RNase H activity (Human immunodeficiency virus type 1 group M subtype B, UniProt P04585, Y768C).
T1 construct: made in house
Briefly: FRET-based RT RNase H cleavage assay, Y181C RT. The format is biochemical. The protocol:
(§1) WT (wild-type) RT, and RTs harboring the NNRTI-resistant mutations K101E, K103N, Y181C, Y188C, G190A and P236L, were overexpressed and purified to homogeneity as described previously. The RT concentration was determined spectrophotometrically at 280 nm using an absorbance coefficient of 260,450 M^−1·cm^−1. The 7-hydroxy tropolone derivative 19,616 (2,7-dihydroxy 2,4,6-cyclo-heptatrien-1-one) was purchased from Molecular Diversity Preservation International (Basel, Switzerland). Nevirapine was purchased from Selleckchem (Houston, TX, USA). The benzisothiazolone derivatives were procured from MolPort (New York, NY, USA) or Enamine (Kyiv, Ukraine). The DNA and RNA oligonucleotides were synthesized and purified by Integrated DNA Technologies (Coralville, IA, USA). All other reagents were of the highest quality available and were used without further purification.
(§2) The following RNA/DNA T/P substrate was used in the present study: an 18-nucleotide RNA template (RNA-18T: 5′-[…]-3′) was annealed to an 18-nucleotide primer (DNA-18T: 5′-[…]-3′), as described previously. Fluorescein and IowaBlack FQTM were covalently attached to the 3′- and 5′-ter-mini of the RNA and DNA oligonucleotides, respectively.
(§3) The FRET-based RNase H cleavage assays were carried out as described previously. Fluorescence was measured with a SpectraMax M2 microplate spectrofluorometer (Molecular Devices, San Jose, CA, USA) using an excitation wavelength of 490 nm and an emission wavelength of 528 nm. Data were analyzed using SoftMax Pro software, version 4.7.1 (Molecular Devices, San Jose, CA, USA).

For series [2], the system named is Y181C HIV-1 RT RNase H activity. The experiment in a line: FRET-based RT RNase H cleavage assay, Y181C RT. The format is biochemical. The note with it: Y181C RT; fold resistance IC50 mutant/IC50 WT. The procedure:
as §1, §2, §3

Series [3] has as its target T2, WT HIV-1 RT DNA-dependent DNA polymerase activity (Human immunodeficiency virus type 1 group M subtype B, UniProt P04585).
T2 construct: made in house
Briefly: biochemical. The format is biochemical. The note with it: for Polymerase Activity IC50 (DNA Polymerase): WT RT, mean ± SD, at least three independent experiments. The protocol: as §1, with “Nevirapine was purchased from Selleckchem (Houston, TX, USA).” left out
DDDP assays were also performed using a QuantiFluor ONE based spectrophotometric assay to detect double-stranded DNA synthesized by recombinant HIV-1 RT [14]. The reaction contained 40 nM of a template/primer comprising a 200 nt DNA template (5′-[…] […]-[…]-[…] […] […]-3′) annealed to an 18-nucleotide DNA primer (5′-[…]-3′), and a mix of 50 mM Tris-HCl pH 7.8, 50 mM NaCl, 10 mM MgCl2 and 50 µM dNTP. The reactions were stopped after 45 min by adding the detection reagent containing 1 × Quant-Fluor One (Promega) and 12.5 mM ethylenediaminetet-raacetic acid; the samples were transferred to a 96-well black plate, and fluorescence was measured at excitation/emission (490/535 nm).

Series [4] has as its target T3, G190A HIV-1 RT RNase H activity (Human immunodeficiency virus type 1 group M subtype B, UniProt P04585, G777A).
T3 construct: made in house
The experiment in a line: FRET-based RT RNase H cleavage assay, G190A RT. The series is classed as biochemical. The protocol:
as §1, §2, §3

For series [5], the system named is G190A HIV-1 RT RNase H activity. Briefly: FRET-based RT RNase H cleavage assay, G190A RT. The format is biochemical. To be noted: G190A RT; fold resistance IC50 mutant/IC50 WT. The protocol:
as §1, §2, §3

Series [6] deals with T4, K101E HIV-1 RT RNase H activity (Human immunodeficiency virus type 1 group M subtype B, UniProt P04585, K688E).
T4 construct: made in house
The experiment in a line: FRET-based RT RNase H cleavage assay, K101E RT. The format is biochemical. The procedure: as §1, §2, §3

For series [7], the system named is K101E HIV-1 RT RNase H activity. The experiment in a line: FRET-based RT RNase H cleavage assay, K101E RT. The series is classed as biochemical. To be noted: K101E RT; fold resistance IC50 mutant/IC50 WT. The procedure: as §1, §2, §3
The test system of series [8] is K103N HIV-1 RT RNase H activity. The experiment in a line: FRET-based RT RNase H cleavage assay, K103N RT. The series is classed as biochemical. The note with it: K103N RT; fold resistance IC50 mutant/IC50 WT. The protocol: as §1, §2, §3
Series [9] concerns the target T5, K103N HIV-1 RT RNase H activity (Human immunodeficiency virus type 1 group M subtype B, UniProt P04585, K690N).
T5 construct: made in house
Briefly: FRET-based RT RNase H cleavage assay, K103N RT. The format is biochemical. The protocol: as §1, §2, §3

For series [10], the system named is P236L HIV-1 RT RNase H activity. Briefly: FRET-based RT RNase H cleavage assay, P236L RT. The series is classed as biochemical. To be noted: P236L RT; fold resistance IC50 mutant/IC50 WT. The protocol: as §1, §2, §3
In series [11] the target is T6, P236L HIV-1 RT RNase H activity (Human immunodeficiency virus type 1 group M subtype B, UniProt P04585, P823L).
T6 construct: made in house
Briefly: FRET-based RT RNase H cleavage assay, P236L RT. The series is classed as biochemical. The procedure: as §1, §2, §3

The target in series [12] is T7, Y188C HIV-1 RT RNase H activity (Human immunodeficiency virus type 1 group M subtype B, UniProt P04585, Y775C).
T7 construct: made in house
The experiment in a line: FRET-based RT RNase H cleavage assay, Y188C RT. The series is classed as biochemical. The procedure: as §1, §2, §3

Series [13] has as its system Y188C HIV-1 RT RNase H activity. Briefly: FRET-based RT RNase H cleavage assay, Y188C RT. To be noted: Y188C RT; fold resistance IC50 mutant/IC50 WT. The series is classed as biochemical. The protocol:
as §1, §2, §3

A further series concerns HIV-1. The experiment in a line: Antiviral activity (HIV-1 replication) in TZM-bl cells. The format is cell-based. The note with it: Human immunodeficiency virus 1, mean ± SD. The procedure:
The genes for Y181C, Y181I, Y181V and Y181F were cloned into HIV-1LAI. NNRTI susceptibility was determined in TZM-bl cells, as described previously.
(§4) Next, we re-purchased 10 hit compounds with IC50 values < 1.0 µM for the inhibition of RT RNase H activity that were commercially available in sufficient quantities for further analysis. We assessed their antiviral activity and cytotoxicity in TZM-bl cells, as described previously.

For series [14], the target named is T8, WT HIV-1 RT RNase H activity (Human immunodeficiency virus type 1 group M subtype B, UniProt P04585).
T8 construct: made in house
Briefly: biochemical. The format is biochemical. To be noted: for RNase H Activity IC50: WT RT, mean ± SD, at least three independent experiments. The protocol: as §1, with “Nevirapine was purchased from Selleckchem (Houston, TX, USA).” left out
Compounds were screened at a final concentration of 10 µM in 1× assay buffer (50 mM Tris pH 8.0, 60 mM KCl, 5 mM MgCl2) containing 1% DMSO in 384-well Greiner black polystyrene plates (VWR catalog # 82051-272). A total of 10 µL of intermediate diluted compounds (100 µM in 10% DMSO) was transferred into assay plates using the Evolution-3 (EP3) (Perkin Elmer, Waltham, MA, USA) automated liquid handling platform outfitted with a 384-well transfer head. A total of 40 µL of RT-RNase H enzyme (60 ng per well) were then dispensed into each well using the Titertek MAP-C2 reagent dispenser platform (Huntsville, AL, USA). A total of 50 µL of the RNA/DNA duplex (140 nM) substrate was then dispensed into each well using the MAP-C2 dispenser, and the assay plates were then incubated at room temperature for 20 min. After 20 min, the assay was terminated by the addition of 10 µL of 1 M EDTA pH 9.0 stop buffer. Relative fluorescent unit (RFU) signals, Excitation 490 nm and Emission 528 nm (Cutoff 515 nm), were captured on the Spectromax M5e plate reader (Molecular Devices, Menlo, CA, USA). […] The template also calculated the plate signal-to-background (S:B) ratios (mean maximum signal/mean minimum signal) and Z’-factor coefficient HTS performance statistics.
as §2, §3
We implemented a rapid, robust and inexpensive fluorescence-based 384-well assay for the measurement of RT RNase H activity, previously described by Parniak et al.. The substrate comprises an 18-nucleotide 3′-fluorescein-labeled heteropolymeric RNA annealed to a complementary 5′-dabcyl-modified DNA. RT cleaves the RNA strand of this substrate close to the 3′ end, promoting the dissociation of the fluorescein-labeled RNA fragment and generating a detectable fluorescent signal. We used this HTS assay to screen 65,239 compounds at a final concentration of 10 µM.

Series [15] is described as follows: Cytotoxicity in TZM-bl cells. The series is classed as cell-based. The note with it: human, TZM-bl cell death. The procedure:
as §4

Where only a bound is given, the exact number is not on record here.

As a reminder, the IC50 is the concentration at which inhibition is half-maximal. Read a low IC50 as greater potency. What is called EC50 is the concentration needed to bring the measured effect to its halfway point. Broadly, the CC50 is the concentration that lowers cell viability or growth by half. The low end stands for harm at low concentration, the high end for better tolerance by the cells.

With `Cn1sc2ccccc2c1=O` [Compound 3, 2-methylbenzo[d]isothiazol-3(2H)-one], the IC50 in series [1] was 2.1 ± 0.3 µM; in series [3], greater than 81 µM; in [4] it was 2.4 ± 0.4 µM; in series [6], 2.2 ± 0.3 µM; in [9] it was 2.4 ± 0.2 µM; in [11], 2.2 ± 0.2 µM. In addition, the half-inhibitory concentration (IC50) in series [12] is 5.7 ± 1.2 µM; in series [14] it was 2.5 ± 0.2 µM. Moreover, the “Inhibition of RT RNase H Activity Fold-R” value in series [2] was 0.8; in series [5], 1.0; in series [7], 0.9; in series [8], 1.0; in series [10], 0.9; in series [13] it was 2.3. Moreover, in series [3], the “Polymerase Activity IC50 (DNA Polymerase)” value (“Polymerase Activity IC50” below) was “completely inactive”. In the series on HIV-1, this molecule yielded an EC50 of 28.4 ± 12.3 µM. The molecule further registered a CC50 in [15] of no less than 100 µM.

`O=c1c2ccccc2sn1-c1ccc(S(=O)(=O)N2CCCC2)cc1` [Compound 5]: in series [3], half-maximal inhibition (IC50) was put at 25 ± 25 µM and the “Polymerase Activity IC50” value was “modest activity”. In series [14], the IC50 is 15.4 ± 9.2 µM and the “RNase H Activity IC50” value was “modest activity”.

On to `O=c1c2ccccc2sn1-c1ccc(S(=O)(=O)N2CCCCC2)cc1` [Compound 6], for which, in series [3], half-maximal inhibition (IC50) required 12.2 ± 3.7 µM and the “Polymerase Activity IC50” value is on record as “modest activity”. Also, in series [14], the IC50 was found to be 39.2 ± 21 µM and the “RNase H Activity IC50” value was “modest activity”.

As for `O=S(=O)(c1cccc(-c2cn3cc(Cl)ccc3n2)c1)N1CCOCC1` [Compound 7], the IC50 in series [3] and in series [14] was greater than 81 µM each time.

With `CC1CN(S(=O)(=O)c2cccc(-c3cn4ccccc4n3)c2)CC(C)O1` (stereo not drawn) [Compound 8], the IC50 in series [3] and in series [14] was greater than 81 µM in each case.

With `Cc1ccc(-c2nc3ccccc3s2)cc1S(=O)(=O)N1CCOCC1` [Compound 9], the IC50 in [3] and in series [14] was greater than 81 µM throughout.

On to `O=S(=O)(c1cc(-c2nc3ccccc3s2)ccc1Cl)N1CCOCC1` [Compound 10], for which the concentration for half-maximal inhibition (IC50) in series [3] and in series [14] was greater than 81 µM throughout.

Turning to `O=S(=O)(c1cccc(-c2nc3ccccc3s2)c1)N1CCCC1` [Compound 11], the IC50 was 62 ± 38 µM in series [3] and greater than 81 µM in series [14].

Turning to `O=c1c(O)ccccc1O` [Compound 19619, 2,7-dihydroxy 2,4,6-cyclo-heptatrien-1-one, reference compound], the IC50 in series [1] came out at 12.1 ± 1.6 µM; in series [4], 7.1 ± 1.9 µM; in [6], 8.1 ± 1.7 µM; in series [9], 9.4 ± 0.9 µM; in series [11], 8.9 ± 2.5 µM; in series [12], 5.5 ± 2.4 µM. Further, half-maximal inhibition in series [14] (IC50) was put at 8.7 ± 3 µM. Besides, the “Inhibition of RT RNase H Activity Fold-R” value in series [2] worked out at 1.4; in series [5], 0.8; in [7], 0.9; in [8] it was 1.1; in series [10], 1.0; in series [13] it was 0.6.

Values taken from article PMC11274943, “Discovery of Benzisothiazolone Derivatives as Bifunctional Inhibitors of HIV-1 Reverse Transcriptase DNA Polymerase and Ribonuclease H Activities” (Biomolecules, 2024).
